Entries after “also recorded” stand apart in the source; their conditions may differ.
Legend:
MAX:MXD1(MAD1) = system: T1, MAX:MXD1(MAD1); experiment: GLuc MAD:MAX in COS-7 cells; assay type: cell-based; conditions: 12.5 µM
T1 construct: full-length MXD1(MAD1) or full-length MAX cDNA; expressed in transfected cells; host or cells: COS-7
Description: The protein fragment complementation assay using the Gaussia luciferase has been described. 0.2–0.4 μg of each GLuc-construct (see Supplementary Information) together with 0.05–0.2 μg pCMV-Luc (Firefly luciferase) were transiently transfected into HEK293 or COS-7 cells in 6-well plates. 24 hours later cells were treated with compound (10–25 μM) or DMSO. After another 17 hours, the cells were harvested and lyzed in passive lysis buffer (Promega) supplemented with complete protease inhibitor (Roche). After 60 min incubation at room temperature 20 μM D-luciferin was added (substrate of Firefly luciferase) and luminescence was measured in a Lumat LB9501 (Berthold) or OmegaFluostar (BMG Labtech) luminometer. Directly after, Gaussia luciferase substrate Coelenterazine (Promega) was added to a final concentration of 20 μM in a mixture with “Stop n’ Glow” (Promega) and the luciferase activity was measured. The ratio between Gaussia and Firefly luciferase values were calculated and normalized to DMSO-treated control cells.
Supplementary Figure Legends
Supplemental Figure S1. Schematic presentations of MYC and MAX protein constructs. A) BiFC constructs MYC-YFP-N and MAX-YFP-C, containing full-length MYC and MAX fused with N-terminal and C-terminal fragments of yellow fluorescent protein (YFP), respectively 3.
In the MYC deletion mutant MYCΔbHLHZip-YFP-N, the bHLHZip domain, residues 352-432, has been truncated 3. B) Gaussia princeps Luciferase (GLuc) constructs MYC-GLuc-C and MAX-GLuc-N, containing full-length MYC and MAX fused with N-terminal and C-terminal fragments of GLuc, respectively. MYC was truncated at residue 411-432 in order to produce the deletion mutant MYCΔZ ip-GLuc-C. […]
Supplemental Figure S2. […] The cells were reseeded and treated with vehicle or 25 µM of each compound, after which fluorescence was measured 24 hours post-treatment and the YFP/CFP ratio calculated and normalized to DMSO-treated cells.
B) MAD:MAX GLuc assay. MAD-GLuc-C and MAX-GLuc-N constructs were cotransfected into COS-7 cells together with CMV-Luc and treated with MYCMIs (12.5 µM) and analyzed […]

SK-N-DZ cells = experiment: Anchorage-independent growth in agarose; assay type: cell-based; conditions: Homo sapiens, 384 h, 0.35% agarose, 16 days
Description: Triton-X-114 (Sigma). Truncated p53 core protein was a kind gift from Klas Wiman, CCK, […]
Cell proliferation assays. Cell growth and viability was estimated in triplicates with WST-1 (Roche) or Resazurin sodium salt (Sigma-Aldrich) assays in medium at 37°C and 5% CO 2 for 2 hours after which absorbance or fluorescence, respectively, was measured with an Omega Fluostar (BMG Labtech) in a 96 well plate format. Cell counting was done in 96 well plates with CellTracker Green (ThermoFisher) for 30 min in the incubator, after which DAPI was added for 5 min. Images were taken in the green (FITC) and blue (DAPI) channels using a fluorescence microscope (ImageXpress Micro, Molecular Devices). For anchorage-independent growth assay, cells were suspended in 250 µl 0.35% SeaPlaque agarose (InVitro) and seeded into 24 well plates which had previously been coated with a bottom layer of 250 µl 0.7% agarose. After 16 days, the colonies were stained with 100 µg/ml MTT (Sigma) overnight and colonies were counted.
Immunohistochemistry. Apoptosis was visualized at the single-cell level on tumor cryosections using the TUNEL method using the In Situ Cell Death Detection Fluorescein-Roche kit and analyzed by fluorescence microscopy. Briefly, tumor cryosections were fixed in 4% paraformaldyde (PFA) and the assay was performed following the instructions from the manufacturer. Negative controls were run using the reagent without the TdT enzyme. Samples were mounted using Vectashield mounting medium (Vector) and DAPI was used as nuclear counterstaining. Cell proliferation and microvascular density (MVD) were evaluated through Ki67 and CD31staining, respectively, on tumor cryosections and detected by immunofluoresence. Visualization and image acquisition was done in a Zeiss microscope, and for panoramic views by a Vectra imaging system. For quantification, areas with positive TUNEL and Ki67 staining were measured using Image J software. For the analysis of MVD, the number of vessel structures per microscopic field was calculated.

MAX bHLHZip = MAX bHLHZip (Homo sapiens, UniProt P61244); experiment: SPR binding to MAX
Sequence of MAX bHLHZip (P61244 23-102 limits assumed): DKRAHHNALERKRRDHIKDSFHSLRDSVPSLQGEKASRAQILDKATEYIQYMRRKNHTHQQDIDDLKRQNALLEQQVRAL
Description: (§1) The MYC SPR assay was carried out as described above with MYCbHLHZip immobilized to a level of 800–1000 RU. For kinetic binding experiments, a Langmuir 1:1 binding event was applied using the Biacore T200 Evaluation Software 2.0 (GE Healthcare) to determine association (ka) and dissociation (kd) constants of the compound and to calculate affinity (KD) by the formula; KD = kd/ka. Binding responses from equilibrium binding experiments were plotted against compound concentration and KD values were determined at 50% of the theoretical Rmax with the formula Rmax = (MW analyte/MW ligand) × immobilized ligand level on the chip (RU) × stoichiometry (1:1). Same coupling method described above was used to immobilize the control proteins. MAX was immobilized to approximately 2000 RU, MAD to 600 RU, BSA to 1000 RU, p53 to 3000 RU and BCL-XL, to 500 RU.

BCL-XL = system: T2, BCL-XL; experiment: SPR binding to BCL-XL
T2 construct: purchased Abcam
Description: as §1

HDM2 = system: HDM2; parameters: method as in PMID 19202599; conditions: cited from earlier work

GI50 (SK-N-DZ cells) [µM]	Compound	effect on MAX:MXD1(MAD1) interaction (GLuc) (MAX:MXD1(MAD1))	binding to MAX (SPR) (MAX bHLHZip)	fold lower affinity for BCL-XL than for MYC (BCL-XL) [fold]	binding to BCL-XL, % of the theoretical maximum (SPR) (BCL-XL; 2 μM MYCMI-6) [%]	IC50 for HDM2 relative to MYC:MAX in vitro (HDM2)
0.75	O=C(O)/C=C/C(=O)Nc1cccc2c1-c1ccccc1C2=O [MYCMI-14]	did not significantly affect				
5	CCCCN(c1ccccc1)c1ncnc2c1cnn2C [MYCMI-11]	did not significantly affect				

Compound	GI50 (SK-N-DZ cells) [µM]	effect on MAX:MXD1(MAD1) interaction (GLuc) (MAX:MXD1(MAD1))	binding to MAX (SPR) (MAX bHLHZip)	fold lower affinity for BCL-XL than for MYC (BCL-XL) [fold]	binding to BCL-XL, % of the theoretical maximum (SPR) (BCL-XL; 2 μM MYCMI-6) [%]	IC50 for HDM2 relative to MYC:MAX in vitro (HDM2)
CCOc1ccc2nc3cc(/N=N/c4ccc(N)nc4N)ccc3c(N)c2c1 [MYCMI-6]	< 0.4	did not significantly affect	negligible; also recorded: did not bind to MAX	≥ 5	10	approximately 10 fold

Reference: PMC6030159 (Scientific Reports, 2018)
